# What was measured:
# rat [1] = settings: Subchronic oral toxicity in rodents, sprague dawley, Feed, dose end: 13 week
# rat [2] = settings: Prenatal developmental toxicity study, sprague dawley, Oral, Gavage/Intubation, dose end: 16 GD
# mouse = settings: Prenatal developmental toxicity study, cd1, Oral, Gavage/Intubation, dose end: 15 GD
# rat [3] = settings: Prenatal developmental toxicity study, other, Oral, Gavage/Intubation, dose end: 15 GD
# rat [4] = settings: Subchronic oral toxicity in rodents, sprague dawley, Feed, dose end: 3 month
# rabbit [5] = settings: Prenatal developmental toxicity study, other, Oral, Gavage/Intubation, dose end: 18 GD
# rat [6] = settings: Multigenerational reproductive toxicity study, other, Oral, Feed, dose end: 2 generation
# rabbit [7] = settings: Prenatal developmental toxicity study, new zealand white, Oral, Gavage/Intubation, dose end: 19 GD
# rat [8] = settings: Prenatal developmental toxicity study, sprague dawley, Oral, Gavage/Intubation, dose end: 15 GD
# rat [9] = settings: Multigenerational reproductive toxicity study, other, Oral, Feed, dose end: 2 generation; remark: listed apart in the source
# rat [10] = settings: Multigenerational reproductive toxicity study, wistar, Oral, Feed, dose end: 2 generation
# rat [11] = settings: Prenatal developmental toxicity study, sprague dawley, Inhalation, Whole-Body, dose end: 20 GD
# hamster = settings: Prenatal developmental toxicity study, golden syrian, Oral, Gavage/Intubation, dose end: 15 GD
# rabbit [12] = settings: Prenatal developmental toxicity study, himalayan, Oral, Gavage/Intubation, dose end: 18 GD
# rat [13] = settings: Prenatal developmental toxicity study, wistar, Oral, Gavage/Intubation, dose end: 16 GD
# [14] = group: maternal, reproductive / reproductive performance / estrous cycle / length
# [15] = group: systemic, systemic / clinical chemistry / calcium / calcium + systemic / clinical chemistry / globulins / globulins + systemic / clinical chemistry / …
# [16] = group: developmental, developmental / developmental malformation / bone / incomplete ossification + developmental / developmental malformation / bone / unossified…
# [17] = group: maternal, systemic / in life observation / body weight / body weight gain
# [18] = group: maternal, systemic / in life observation / body weight / body weight gain + reproductive / reproductive performance / postimplantation loss / …
# [19] = group: developmental, systemic / in life observation / body weight / fetal weight
# [20] = group: maternal, systemic / in life observation / water consumption / water consumption
# [21] = group: maternal, systemic / in life observation / water consumption / water consumption + systemic / in life observation / clinical signs / altered breathing…
# [22] = group: developmental, developmental / developmental malformation / bone / [other] + developmental / developmental malformation / bone / discontinuous
# [23] = group: developmental, developmental / developmental malformation / bone / [other] + developmental / developmental malformation / bone / discontinuous + …
# [24] = group: maternal, systemic / in life observation / water consumption / water consumption + systemic / in life observation / body weight / body weight gain + …
# [25] = group: cholinesterase, cholinesterase / cholinesterase / cholinesterase / cholinesterase (che)
# [26] = group: systemic, systemic / hematology / anemia / anemia - hemolytic + systemic / in life observation / body weight / body weight gain + systemic / in life …
# [27] = group: systemic, systemic / hematology / blood clotting / blood clotting - activated partial thromboplastin time + systemic / hematology / blood clotting / …
# [28] = group: developmental, developmental / developmental malformation / bone / full supernumerary + systemic / in life observation / body weight / fetal weight
# [29] = group: developmental, developmental / developmental malformation / bone / full supernumerary + systemic / in life observation / body weight / fetal weight + …
# [30] = group: maternal, systemic / in life observation / body weight / body weight gain + systemic / in life observation / food consumption / food consumption
# [31] = group: maternal, systemic / in life observation / body weight / body weight gain + systemic / in life observation / food consumption / food consumption + …
# [32] = group: offspring, systemic / in life observation / body weight / offspring (pup) weight
# [33] = group: offspring, systemic / in life observation / body weight / offspring (pup) weight + developmental / developmental malformation / bone / extra …
# [34] = group: parental, systemic / pathology microscopic / spleen / hemosiderosis
# [35] = group: parental, systemic / pathology microscopic / spleen / hemosiderosis + systemic / in life observation / body weight / body weight gain + systemic / in …
# [36] = group: developmental, developmental / developmental malformation / brain / hydrocephaly + developmental / developmental malformation / bone / domed head
# [37] = group: maternal, reproductive / reproductive performance / postimplantation loss / postimplantation loss + reproductive / reproductive performance / …
# [38] = group: developmental, developmental / developmental malformation / bone / fragmented + developmental / developmental malformation / bone / unossified + …
# [39] = group: maternal, systemic / in life observation / body weight / body weight gain + systemic / in life observation / mortality / mortality + systemic / …
# [40] = group: parental, systemic / in life observation / body weight / body weight + systemic / in life observation / body weight / body weight gain
# [41] = group: reproductive, reproductive / reproductive performance / fertility / fertility + reproductive / reproductive performance / precoital interval / precoital …
# [42] = group: offspring, systemic / in life observation / body weight / offspring (pup) weight + systemic / organ weight / spleen / absolute + systemic / organ …
# [43] = group: parental, systemic / organ weight / spleen / absolute
# [44] = group: parental, systemic / organ weight / spleen / absolute + systemic / in life observation / body weight / body weight gain + systemic / pathology …
# [45] = group: reproductive, reproductive / reproductive performance / estrous cycle / abnormal
# [46] = group: developmental, systemic / in life observation / body weight / fetal weight + developmental / developmental malformation / bone / incomplete ossification
# [47] = group: developmental, developmental / developmental malformation / bone / [other] + developmental / developmental malformation / bone / absent + developmental / …
# [48] = group: maternal, systemic / in life observation / clinical signs / ataxia + systemic / in life observation / clinical signs / body temperature + systemic / …
# [49] = group: developmental, developmental / developmental malformation / bone / [other] + developmental / developmental malformation / bone / fragmented + developmental…
# [50] = group: maternal, systemic / in life observation / mortality / mortality + systemic / in life observation / clinical signs / [other] + systemic / in life …
# [51] = group: developmental, developmental / developmental malformation / bone / bent
# [52] = group: maternal, systemic / in life observation / body weight / body weight + systemic / in life observation / body weight / body weight gain + systemic / in…
structure (smiles),measurement,setting,value
"Nc1nc(N)nc(Cl)n1 [2-Chloro-4,6-diamino-1,3,5-triazine]",LEL,rat [1]; [14],7.6 mg/kg/day
same,LOAEL,rat [1]; [14],7.6 mg/kg/day
same,NEL,rat [1]; [14],0.7 mg/kg/day
same,NOAEL,rat [1]; [14],0.7 mg/kg/day
same,LOAEL,rat [1]; [15],> 34.1 mg/kg/day
same,NEL,rat [1]; [15],6.7 mg/kg/day
same,NOAEL,rat [1]; [15],≥ 34.1 mg/kg/day
same,LEL,"rat [1]; group: systemic, systemic / clinical chemistry / protein / protein",16.7 mg/kg/day
same,LEL,rat [2]; [16],25 mg/kg/day
same,LOAEL,rat [2]; [16],25 mg/kg/day
same,NEL,rat [2]; [16],2.5 mg/kg/day
same,NOAEL,rat [2]; [16],2.5 mg/kg/day
same,LEL,rat [2]; [17],75 mg/kg/day
same,LOAEL,rat [2]; [17],75 mg/kg/day
same,NEL,rat [2]; [18],25 mg/kg/day
same,NOAEL,rat [2]; [18],25 mg/kg/day
OCCOCCO [Diethylene glycol],LEL,mouse; [19],11200 mg/kg/day
same,LOAEL,mouse; [19],11200 mg/kg/day
same,NEL,mouse; [19],2800 mg/kg/day
same,NOAEL,mouse; [19],2800 mg/kg/day
same,LEL,mouse; [20],2800 mg/kg/day
same,LOAEL,mouse; [20],2800 mg/kg/day
same,NEL,mouse; [21],559 mg/kg/day
same,NOAEL,mouse; [21],559 mg/kg/day
same,LEL,rat [3]; [22],4470 mg/kg/day
same,LOAEL,rat [3]; [22],4470 mg/kg/day
same,NEL,rat [3]; [23],1120 mg/kg/day
same,NOAEL,rat [3]; [23],1120 mg/kg/day
same,LEL,rat [3]; [20],4470 mg/kg/day
same,LOAEL,rat [3]; [20],4470 mg/kg/day
same,NEL,rat [3]; [24],1120 mg/kg/day
same,NOAEL,rat [3]; [24],1120 mg/kg/day
C#CCN1CC(=O)N(COC(=O)C2C(C=C(C)C)C2(C)C)C1=O (centres undefined) [Imiprothrin],LEL,rat [4]; [25],399 mg/kg/day
same,LOAEL,rat [4]; [25],> 657 mg/kg/day
same,NEL,rat [4]; [25],197 mg/kg/day
same,NOAEL,rat [4]; [25],≥ 657 mg/kg/day
same,LOAEL,rat [4]; [26],179 mg/kg/day
same,NOAEL,rat [4]; [26],5.9 mg/kg/day
same,LEL,rat [4]; [27],5.9 mg/kg/day
same,NEL,rat [4]; [27],< 5.9 mg/kg/day
same,LEL,rabbit [5]; [28],100 mg/kg/day
same,LOAEL,rabbit [5]; [28],100 mg/kg/day
same,NEL,rabbit [5]; [29],30 mg/kg/day
same,NOAEL,rabbit [5]; [29],30 mg/kg/day
same,LOAEL,rabbit [5]; [30],100 mg/kg/day
same,LEL,rabbit [5]; [31],100 mg/kg/day
same,NEL,rabbit [5]; [31],30 mg/kg/day
same,NOAEL,rabbit [5]; [31],30 mg/kg/day
same,NEL,rat [6]; [32],126 mg/kg/day
same,NOAEL,rat [6]; [32],126 mg/kg/day
same,LEL,rat [6]; [33],369 mg/kg/day
same,LOAEL,rat [6]; [33],369 mg/kg/day
same,LEL,rat [6]; [34],144 mg/kg/day
same,LOAEL,rat [6]; [34],144 mg/kg/day
same,NEL,rat [6]; [35],14.7 mg/kg/day
same,NOAEL,rat [6]; [35],14.7 mg/kg/day
O=c1[nH]c(=O)[nH]c(=O)[nH]1 [Cyanuric acid],LOAEL,"rabbit [7]; group: developmental, developmental / developmental malformation / brain / hydrocephaly",500 mg/kg/day
same,LEL,rabbit [7]; [36],500 mg/kg/day
same,NEL,rabbit [7]; [36],200 mg/kg/day
same,NOAEL,rabbit [7]; [36],200 mg/kg/day
same,LEL,rabbit [7]; [37],500 mg/kg/day
same,LOAEL,rabbit [7]; [37],> 500 mg/kg/day
same,NEL,rabbit [7]; [37],200 mg/kg/day
same,NOAEL,rabbit [7]; [37],≥ 500 mg/kg/day
[Li+].[O-]Cl [Lithium hypochlorite],LOAEL,rat [8]; [38],500 mg/kg/day
same,NEL,rat [8]; [38],10 mg/kg/day
same,NOAEL,rat [8]; [38],100 mg/kg/day
same,LEL,"rat [8]; group: developmental, developmental / developmental malformation / bone / kinked + developmental / developmental malformation / bone / thread-like + developmental…",50 mg/kg/day
same,LEL,rat [8]; [39],500 mg/kg/day
same,LOAEL,rat [8]; [39],500 mg/kg/day
same,NEL,rat [8]; [39],100 mg/kg/day
same,NOAEL,rat [8]; [39],100 mg/kg/day
C[C@H]1O[C@H](OC2[C@@H](O)[C@@H](O)C(O)[C@H](O)[C@H]2O)[C@@H](N)C[C@@H]1N=C(N)C(=O)O (some centres undefined) [Kasugamycin],LEL,rat [9]; [40],70.3 mg/kg/day
same,LOAEL,rat [9]; [40],70.3 mg/kg/day
same,NEL,rat [9]; [40],13.7 mg/kg/day
same,NOAEL,rat [9]; [40],13.7 mg/kg/day
same,LEL,rat [9]; [41],425 mg/kg/day
same,LOAEL,rat [9]; [41],425 mg/kg/day
same,NEL,rat [9]; [41],70.3 mg/kg/day
same,NOAEL,rat [9]; [41],70.3 mg/kg/day
Cc1cc(C)c(C2=C(OC(=O)CC(C)(C)C)C3(CCCC3)OC2=O)c(C)c1 [Spiromesifen],LEL,rat [10]; [42],13.2 mg/kg/day
same,LOAEL,rat [10]; [42],13.2 mg/kg/day
same,NEL,rat [10]; [42],3.3 mg/kg/day
same,NOAEL,rat [10]; [42],3.3 mg/kg/day
same,LEL,rat [10]; [43],13.2 mg/kg/day
same,LOAEL,rat [10]; [43],13.2 mg/kg/day
same,NEL,rat [10]; [44],3.3 mg/kg/day
same,NOAEL,rat [10]; [44],3.3 mg/kg/day
same,LEL,rat [10]; [45],18 mg/kg/day
same,LOAEL,rat [10]; [45],18 mg/kg/day
same,NEL,rat [10]; [45],4.6 mg/kg/day
same,NOAEL,rat [10]; [45],4.6 mg/kg/day
"Cc1cc(C)cc(C)c1 [1,3,5-Trimethylbenzene]",LEL,rat [11]; [19],600 ppm
same,LOAEL,rat [11]; [19],600 ppm
same,NEL,rat [11]; [46],300 ppm
same,NOAEL,rat [11]; [46],300 ppm
same,LEL,rat [11]; [30],300 ppm
same,LOAEL,rat [11]; [30],300 ppm
same,NEL,rat [11]; [30],100 ppm
same,NOAEL,rat [11]; [30],100 ppm
CC(C)(C#N)O[C@@H]1O[C@H](CO)[C@@H](O)[C@H](O)[C@H]1O [Linamarin],LOAEL,hamster; [47],> 140 mg/kg/day
same,NEL,hamster; [47],100 mg/kg/day
same,NOAEL,hamster; [47],≥ 140 mg/kg/day
same,LEL,"hamster; group: developmental, developmental / developmental malformation / bone / absent + developmental / developmental malformation / bone / meningoencephalocele",120 mg/kg/day
same,LEL,hamster; [48],100 mg/kg/day
same,LOAEL,hamster; [48],> 140 mg/kg/day
same,NEL,hamster; [48],70 mg/kg/day
same,NOAEL,hamster; [48],≥ 140 mg/kg/day
CCOC(=O)C1=NOC(c2ccccc2)(c2ccccc2)C1 [Isoxadifen-ethyl],LEL,rabbit [12]; [49],500 mg/kg/day
same,LOAEL,rabbit [12]; [49],500 mg/kg/day
same,NEL,rabbit [12]; [49],50 mg/kg/day
same,NOAEL,rabbit [12]; [49],50 mg/kg/day
same,LOAEL,"rabbit [12]; group: maternal, systemic / in life observation / mortality / mortality",500 mg/kg/day
same,LEL,rabbit [12]; [50],500 mg/kg/day
same,NEL,rabbit [12]; [50],50 mg/kg/day
same,NOAEL,rabbit [12]; [50],50 mg/kg/day
same,LEL,rat [13]; [51],120 mg/kg/day
same,LOAEL,rat [13]; [51],120 mg/kg/day
same,NEL,rat [13]; [51],15 mg/kg/day
same,NOAEL,rat [13]; [51],15 mg/kg/day
same,LEL,rat [13]; [52],1000 mg/kg/day
same,LOAEL,rat [13]; [52],1000 mg/kg/day
same,NEL,rat [13]; [52],120 mg/kg/day
same,NOAEL,rat [13]; [52],120 mg/kg/day
